Measurements: patent US20070074295A1 (priority 2000, published 2007)

Columns and labels:
rats = test: Effect of haloperidol and clozapine on PCP induced hypofunction: LCGU; assay type: in vivo, rat; conditions: i.p. PCP 2.58 mgkg^−1; minipump vehicle, clozapine 20 or haloperidol 1 mgkg^−1/day; day 29
Source text: The effect of antipsychotics on the positive symptoms is less well studied regarding imaging studies.

5-HT2A receptors = test: 5-HT2A receptor binding (3H-ketanserin autoradiography) in prefrontal cortex after chronic PCP; assay type: in vivo, rat; conditions: chronic PCP treatment
Source text: In order to further validate this chronic PCP model, the effects of this treatment paradigm on 5-HT2A receptors within the prefrontal cortex was investigated. Chronic PCP treatment produced a significant decrease in 5-HT2A receptors in layer II & III (controls 158±6, PCP 139±4 fmolmg^−1) and layers V & VI (controls 82±4, PCP 69±3 fmolmg^−1). This is entirely consistent with post mortem studies of 5-HT2A receptor binding from schizophrenic patents (Laurelle, M. et al).
5-HT2A receptor binding: Sections from the level of the prefrontal cortex were preincubated for two consecutive washes at room temperature in 50mM Tris HCl buffer pH 7.4 to remove endogenous ligand. Total binding was defined using 0.71 nM (Wolkin, A. et al) ^3H-ketanserin in the presence of 1μM prazozin and 1μM tetrabenazine (to block non 5-HT2A binding). Non-specific binding was defined using 50nM spiperone. Sections were incubated with the appropriate ligand solution for 1 hour at room temperature then washed twice for 10 minutes in ice cold buffer before being rinsed in ice cold water and rapidly air dried. The sections were then exposed to film (Biomax MR, Kodak) with previously calibrated (Wolkin, A. et al) ^3H-standards.
Autoradiograms were analysed using MCID densitometry system. Results were statistically analysed using a one-way ANOVA followed by a student Newman-Keuls post hoc test.

Synapsins 1A&1B = test: Rat Atlas Array, prefrontal cortex, chronic PCP model; assay type: in vivo
Method: Rats were injected with PCP (2.58 mg/kg) or vehicle i.p. for 5 days according to the YRING PCP model. […] On the same day, the rats began a course of i.p. injections every 2.5 days with either PCP (2.58 mg/kg) or vehicle.
21 days after minipump implantation, animals were killed by cervical dislocation and the prefrontal cortex dissected and stored at −70° C. RNA was then prepared according to the protocol below and the corresponding cDNA synthesis and hybridisation procedure were conducted using the rat Atlas Array kit according to the manufacturer's instructions (Clontech).
Results are expressed as mean relative optical densities ±SEM. Statistical significance was defined as P<0.05. N=¾ per group.
Frozen tissue already resides in the ribolyser tubes from the dissection procedure • 1) Add 1.1 ml Qiagen lysis buffer (containing β-mercaptoethanol, final volume =3%). • 2) Perform 3×20 sec homogenisations at 6.5 g in a ribolyser. • 3) Spin 3 min in microfuge. • 4) Decant to fresh tube and re-spin 3 min. • 5) Decide at this stage if you want to dilute supernatant with more lysis buffer. • 6) Add equal volume of phenol/CHCl3 pH4.7, vortex 30 sec and leave on ice for 10 min. • 7) Re-vortex and spin 4° C. 5-10 min at 1500 g. • 8) Decant supernatant and add 100 μl H2O. Add an equal volume of phenol/CHCl3 pH4.7, vortex, spin 5-10 min at 1500 g. • 9) Decant supernatant and add 100 μl H2O. […]

CIRL2 variant AB mRNA = test: Semi-quantitative RT-PCR, prefrontal cortex, chronic PCP and antipsychotic treatment; assay type: in vivo, rat; conditions: chronic PCP treatment
Method: FIG. 15 illustrates the level of CIRL2 variant AB mRNA present in the prefrontal cortex of rat brain following chronic PCP and antipsychotic treatment (n=12 for all groups apart from veh-veh where n=11). […] and […] (SEQ ID NOS: 27-28) were the primer sequences used to amplify this product.
(§1) RT-PCR for specific isoforms of CIRL was then conducted in the prefrontal cortex.
(§2) 1 ml of lysis buffer (Qiagen), including 1% β-mercaptoethanol, was added to approximately 50-100 mg of brain tissue. Tissue samples were homogenised using a ribolyser (Hybaid) with 3 bursts at 6.5 g lasting 20 seconds each. Samples were then spun at room temperature in a microfuge for 3 minutes. The supernatant was removed and re-spun for a further 3 minutes. The supernatant was decanted to a fresh tube to which an equal volume of 70% ethanol was added. The remaining RNA isolation procedure was carried out according to the manufacturer's protocol (Qiagen).
(§3) Synthesis of cDNA was carried out according to manufacturers protocols (Life Technologies). Briefly 3-5μg of total RNA was reverse transcribed using oligo dT priming. After cDNA synthesis, samples were aliquoted and stored at −70° C. […]
(§4) Alterations in expression levels were determined by semi-quantitative PCR. […] Samples were removed over 4 consecutive cycles, however, the first cycle to be removed sometimes varied depending on when logarithmic amplification was detected. […]

CIRL3 variant AA mRNA = test: as above; assay type: in vivo, rat; conditions: chronic PCP treatment
Method: FIG. 16 illustrates the level of CIRL3 variant AA mRNA present in the prefrontal cortex of rat brain following chronic PCP and antipsychotic treatment (n=12 for all groups apart from veh-veh where n=11) […] and […] (SEQ ID NOS: 29-30) were the primer sequences used to amplify this product.
as §1, §2, §3, §4

TNFα mRNA = test: RT-PCR for TNFα mRNA in rat prefrontal cortex; assay type: in vivo; conditions: acute PCP, single i.p. injection 2 mg/kg, 2 hrs and 24 hrs
Method: Four groups of rats were treated with (a) chronic PCP, (b) chronic vehicle (control), (c) chronic PCP plus chronic clozapine (as above) or (d) chronic PCP plus chronic haloperidol (as above). The tissue was processed for RNA extraction and RT-PCP as described above, using primers specific for TNFα mRNA.

SMILES: c1ccc(C2(N3CCCCC3)CCCCC2)cc1 [PCP, phencyclidine]
- LCGU, Au layer I (rats): 138 ± 3 μmol/100 g/min
- LCGU, Au layers II, III&IV (rats): 174 ± 4 μmol/100 g/min
- LCGU, Au layers V & VI (rats): 120 ± 2 μmol/100 g/min
- LCGU, AuD layer I (rats): 126 ± 5 μmol/100 g/min
- LCGU, AuD layers II, III&IV (rats): 141 ± 6 μmol/100 g/min
- LCGU, AuD layers V & VI (rats): 105 ± 2 μmol/100 g/min
- LCGU, CA1 molecular layer (rats): 93 ± 2 μmol/100 g/min
- LCGU, CA1 pyramidal cell layer (rats): 63 ± 2 μmol/100 g/min
- LCGU, CA1 stratum oriens (rats): 59 ± 2 μmol/100 g/min
- LCGU, CA1 stratum radiatum (rats): 67 ± 2 μmol/100 g/min
- LCGU, CA3 molecular layer (rats): 90 ± 2 μmol/100 g/min
- LCGU, CA3 pyramidal cell layer (rats): 69 ± 2 μmol/100 g/min
- LCGU, CA3 stratum oriens (rats): 60 ± 3 μmol/100 g/min
- LCGU, CA3 stratum radiatum (rats): 70 ± 3 μmol/100 g/min
- LCGU, DLL (rats): 89 ± 4 μmol/100 g/min
- LCGU, MD (rats): 133 ± 6 μmol/100 g/min
- LCGU, PrL layer I (rats): 109 ± 4 μmol/100 g/min
- LCGU, PrL layers II & III (rats): 127 ± 5 μmol/100 g/min
- LCGU, PrL layers V & VI (rats): 97 ± 3 μmol/100 g/min
- LCGU, Rt (rats): 79 ± 2 μmol/100 g/min
- LCGU, VLL (rats): 98 ± 6 μmol/100 g/min
- LCGU, cochlear nucleus (rats): 92 ± 4 μmol/100 g/min
- LCGU, mO layer I (rats): 104 ± 5 μmol/100 g/min
- LCGU, mO layers II & III (rats): 121 ± 6 μmol/100 g/min
- LCGU, mO layers V & VI (rats): 113 ± 6 μmol/100 g/min
- 5-HT2A receptors, prefrontal cortex layer II & III (5-HT2A receptors): 139±4 fmolmg^−1
- 5-HT2A receptors, prefrontal cortex layers V & VI (5-HT2A receptors): 69±3 fmolmg^−1
- Synapsins 1A&1B expression (Atlas Array) (Synapsins 1A&1B): 23020 ± 1412 relative optical densities
- expression of CIRL2 (AB) (RT-PCR) (CIRL2 variant AB mRNA): reduced
- expression of CIRL3 (AA) (RT-PCR) (CIRL3 variant AA mRNA): reduced
- levels of TNFα in rat prefrontal cortex (TNFα mRNA): reduced
